# Measured values published in ChEMBL document CHEMBL5230110, “FabI (enoyl acyl carrier protein reductase) - A potential broad spectrum therapeutic target and its inhibitors” (Eur J Med Chem, 2020).
# System: Mycobacterium tuberculosis
# Assay: Antimycobacterial activity against Mycobacterium tuberculosis InhA S94A assessed as reduction in bacterial growth
# Assay type: functional
row,SMILES,MIC [µg/mL]
1,Oc1cc2ccc1Oc1ccc(cc1)CCc1ccc(c(O)c1)Oc1ccc(cc1)CC2,40
2,CC/C(C)=C1\OC(=O)[C@H](C)[C@H](O)[C@H](Cc2cccnc2)NC(=O)[C@@H](NC(=O)c2ncccc2O)[C@@H](C)OC1=O [PYRIDOMYCIN],0.3
